Source: article PMC9146163, “Novel Au Carbene Complexes as Promising Multi-Target Agents in Breast Cancer Treatment” (Pharmaceuticals, 2022)
Like-named read-outs stand apart in the source and are kept apart here.

Legend:
β-actin in MCF-10A cells = test: Actin immunofluorescence, MCF-10A; format: cell-based, human
Procedure: (§1) The MitoTracker Deep Red FM probe (MitoTracker Mitochondrion-Selective Probes, Invitrogen European Headquarters, Paisley, PA4 9RF, UK) was used for mitochondrial staining, as previously described. For immunofluorescence analysis, the cells were seeded and further processed, as reported by Iacopetta et al.. The primary antibodies used were: rabbit anti-β-Actin and vimentin (Santa Cruz Biotechnology, Dallas, TX, USA), mouse anti cytochrome c and NF-κB p65 (Abcam, Cambridge, UK), diluted 1:100 in bovine serum albumin (BSA) 2% overnight at 4 °C. The secondary antibodies were: Alexa Fluor® 488 conjugate goat-anti-rabbit and Alexa Fluor® 568 conjugate goat-anti-mouse (Thermo Fisher Scientific, MA, USA), diluted 1:500 and incubated for 2h at 37 °C. DAPI 0.2 μg/mL (Sigma Aldrich, Milan, Italy) was used for nuclei staining. […] All the images were acquired and processed using the LAS-X software.
E: Figure S1. Actin immunofluorescence studies in MCF-10A cells […]
Figure S1. Actin immunofluorescence studies. M CF-10A cells were treat ed with compounds 1 and […]
treatment, the cells were methanol fixed, incubated with primary and secondary antibodies, stained with DAPI and observed and imaged under the inverted fluorescence microscope at 20x […]
A: nuclear stain with DAPI (λex/λem = 350/460 nm); Panels B: β-actin ([…]); Panels C: show a merge. R epresentative fields are shown.

NF-κB in MCF-10A cells = test: NF-κB immunofluorescence, MCF-10A; format: cell-based, human
Procedure: as §1
L: Figure S6. NF-κB expression in MCF-10A cells
CTRL cells and in the cells exposed to compounds 1 and 6 NF-κB is localized within the cytoplasm and nucleus. Panels A, nuclear stain with DAPI (λex/em= 350/460 nm); panels B, Alexa Fluor CF 488 (λex/em= 490/515 nm); panels C, overlay channels. Images were acquired at 40x magnification and repres entative fields are shown.

[1] = target: T1, Labeled Rabbit Muscle Actin (Oryctolagus cuniculus, UniProt P68135); test: In vitro actin depolymerization assay; format: biochemical; settings: 5 µM
T1 construct: purchased Abcam (Actin Polymerization/Depolymerization Assay Kit)
Procedure: The ability of the tested compounds to interfere with the actin polymerization and depolymerization reaction was measured using an Actin Polymerization/Depolymerization Assay Kit purchased from Abcam, following the manufacturer’s instructions. […] For the polymerization assay, reconstituted actin was mixed with supplemented Buffer G and samples in a white 96-well plate and then the polymerization reaction was induced with the addition of the Buffer P supplemented with 10 mM ATP. The solution was mixed and the data acquisition started. For the Actin Depolymerization Assay, supplemented Buffers P and G were mixed and incubated in a white 96-well plate at room temperature for one hour to polymerize the actin, protected from light. Then samples were added and the data acquisition started. Latrunculin A and Cytochalasin B were used as control molecules at a concentration of 5 μM. For both the assays, the assembly of actin filaments was determined by measuring the fluorescence (Ex/Em: 365/410 nm) in kinetic mode for 1 h at room temperature using a microplate reader.

[2] = tested on: caspases 3/7, 8, and 9 in MCF-10A cells; test: Caspase-Glo assay, MCF-10A; format: cell-based, human; settings: IC50 values, 24 h; vs vehicle
Procedure: The activities of caspases 3/7, 8, and 9 were measured by using the Caspase-Glo Assay according to the manufacturer’s guidelines (Caspase-Glo 3/7, 8, and 9 Assay Systems, Promega Corporation, Madison, WI, USA), as already described. The luminescence was detected in a plate-reading luminometer (Synergy H1 Hybrid Reader, BioTek) for 30 min to 3 h (λex/em = 490/570 nm). Results were reported as signal-to-noise ratio (background was determined from the culture medium without cells). The experiments were performed in triplicate.
H: Figure S4. Caspases activity in MCF-10A cells
Caspase 3/7 Caspase 8 Caspase 9
Figure S4. Caspases activity.
between th e vehicl e-treated cells, us ed as control, and the cells treated with compounds 1 and 6. Both
The data are representative of […]

Hek-293 cells = test: MTT assay, normal Hek-293; format: cell-based, human; settings: MTT, 72 h; normal cells; mean ± SD; read-out: IC50 Hek-293
Procedure: The five employed cell lines were purchased from American Type Culture Collection (ATCC, Manassas, VA, USA) and maintained as already reported. […] SkBr3 cells were maintained in DMEM high glucose, supplemented with 10% FBS and 100 μg/mL penicillin/streptomycin.
(§2) MTT assays [Sigma Aldrich (St.Louis, MO, USA)] were used in order to determine the in vitro anticancer activities of all the target compounds, as already reported.The compounds were tested at different concentrations (0.1-1-10-20-40 µM) for 72 h. Results are represented as percent (%) of basal and the IC50 values were calculated using GraphPad Prism 9 (GraphPad Software, La Jolla, CA, USA).

SkBr3 cells = test: MTT assay, SkBr3; format: cell-based, human; settings: MTT, 72 h; mean ± SD; read-out: IC50 SkBr3
Procedure: The five employed cell lines were purchased from American Type Culture Collection (ATCC, Manassas, VA, USA) and maintained as already reported. MCF-7, MDA-MB-231, MCF-10A and Hek-293 were cultured, as indicated by Iacopetta et al.. SkBr3 cells were maintained in DMEM high glucose, supplemented with 10% FBS and 100 μg/mL penicillin/streptomycin.
as §2

MCF-10A cells = test: TUNEL assay, MCF-10A; settings: IC50, 24 h
Procedure: TUNEL assay was employed to assess the cells’ apoptosis, following the manufacturer’s procedures (CF™488A TUNEL Assay Apoptosis Detection Kit, Biotium, Hayward, CA, USA). […] DAPI (Sigma, 0.2 µg/mL) was used for nuclei staining. A fluorescence microscope (Leica DM 6000) was used for fluorescence detection (20× magnification). All the images were processed using the LAS-X software. Images are representative of three independent experiments.
TUNEL assay in MCF-10A cells
Then they were exposed to the TdT enzyme and
visualized under a fluorescence microscope (20x magnification).

[3] = tested on: vimentin in MCF-10A cells; test: Vimentin expression (immunofluorescence, Western blot), MCF-10A; format: cell-based, human; settings: IC50 values, 24 h; immunofluorescence and Western blot quantification
Procedure: as §1
Protein lysates underwent the SDS-PAGE process, as already defined. […]
(CTRL) for 24 h. After treatment, the cells were further processed, observed and imaged under the inverted fluorescence microscope at 20x m agnification (for mo re details see Materi als and M ethods). […]
and processed as reported in the Experimental Section. […] (d) Western blots quantification carried out using […]

SMILES | actin organization in MCF-10A cells (β-actin in MCF-10A cells) | NF-κB localization, MCF-10A (NF-κB in MCF-10A cells) | effect on already polymerized actin (in words) [1] | caspases 3/7, 8 and 9 activity levels, MCF-10A [2] | IC50 (Hek-293 cells) | IC50 (SkBr3 cells) | apoptosis (TUNEL), MCF-10A (MCF-10A cells) | vimentin expression vs CTRL, MCF-10A [3] | actin organization in MCF-10A cells (β-actin in MCF-10A cells; 24 h, compounds at their IC50 value, LA 0.1 μM)
CC(=O)[O-].Cn1c(Cl)c(Cl)n(CC(O)c2ccccc2)[c]1=[Au+]=[c]1n(C)c(Cl)c(Cl)n1CC(O)c1ccccc1 (stereo not shown) [Compound 6, Bis [4,5-dichloro-(N-methyl, N’(2-hydroxy-2-phenyl-ethyl)imidazole-2-ylidine]gold(I)] acetate] | normal | localized within the cytoplasm and nucleus | did not produce a significant decrease | No differences | 32.5 ± 1.1 µM | 2.3 ± 0.9 µM | No apoptosis was detected | not significant | 
Cn1ccn(CC([O-])c2ccccc2)[c]1=[Au+]=[c]1n(C)ccn1CC([O-])c1ccccc1.[Cl-].[Na+].[Na+] (stereo not shown) [Compound 1] |  | localized within the cytoplasm and nucleus | did not produce a significant decrease | No differences | > 200 µM | 83 ± 1 µM | No apoptosis was detected | not significant | normal
